In ChEMBL document CHEMBL1201862, “PubChem BioAssay data set” (2004):
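48-hour exposure; five concentrations; linearly interpolated endpoints. At the GI50, growth is halved.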 Active and inactive are the calls of the source. Rule as the data show it: active = GI50 up to about 1.1 µM and inactive = higher.

Key:
Test in all cases: NCI-60 cell line screen, 48 h
[1] = test system: SNB-19
[2] = test system: UO-31
[3] = test system: HCC 2998
[4] = test system: MDA-MB-231
[5] = test system: OVCAR-8
[6] = test system: UACC-62
[7] = test system: NCI-H226
[8] = test system: HOP-92
[9] = test system: T47D
[10] = test system: A549
[11] = test system: SF-268
[12] = test system: LOX IMVI
[13] = test system: SK-MEL-28
[14] = test system: KM12
[15] = test system: M14
[16] = test system: NCI/ADR-RES
[17] = test system: COLO 205
[18] = test system: SK-MEL-2
[19] = test system: SK-OV-3
[20] = test system: SF-539

Compound | GI50 [1] | GI50 [2] | GI50 [3] | GI50 [4] | GI50 [5] | GI50 [6] | GI50 [7] | GI50 [8] | GI50 [9] | GI50 [10] | GI50 [11] | GI50 [12] | GI50 [13] | GI50 [14] | GI50 [15] | GI50 [16] | GI50 [17] | GI50 [18] | GI50 [19] | GI50 [20]
CCOC(=O)C1(C#N)C2(C#N)C(N)=NC(ON=C(C)C)(ON=C(C)C)C12C#N (centres undefined) | > 100 µM (inactive) | > 100 µM (inactive) | > 100 µM (inactive) | 62.4 µM (inactive) | > 100 µM (inactive) | > 100 µM (inactive) | > 100 µM (inactive) | > 100 µM (inactive) | > 100 µM (inactive) | > 100 µM (inactive) | > 100 µM (inactive) | > 100 µM (inactive) | > 100 µM (inactive) | > 100 µM (inactive) | > 100 µM (inactive) | > 100 µM (inactive) | > 100 µM (inactive) | > 100 µM (inactive) | > 100 µM (inactive) | –
O=[N+]([O-])c1c2nc3n(c2cc2c1nc1n2CCC1)CCC3 | > 100 µM (inactive) | > 100 µM (inactive) | > 100 µM (inactive) | > 100 µM (inactive) | > 100 µM (inactive) | > 100 µM (inactive) | > 100 µM (inactive) | > 100 µM (inactive) | > 100 µM (inactive) | > 100 µM (inactive) | > 100 µM (inactive) | > 100 µM (inactive) | > 100 µM (inactive) | > 100 µM (inactive) | > 100 µM (inactive) | > 100 µM (inactive) | > 100 µM (inactive) | – | > 100 µM (inactive) | > 100 µM (inactive)
Nn1c(SCC(=O)NCc2ccccc2)nc2ccccc2c1=O | 67 µM (inactive) | 43.9 µM (inactive) | 44.8 µM (inactive) | 57.8 µM (inactive) | 40.6 µM (inactive) | 41.6 µM (inactive) | 79.1 µM (inactive) | 34.2 µM (inactive) | > 100 µM (inactive) | 31.3 µM (inactive) | 38.2 µM (inactive) | 49 µM (inactive) | 92.5 µM (inactive) | > 100 µM (inactive) | 36.6 µM (inactive) | 36.5 µM (inactive) | 48.5 µM (inactive) | 76.7 µM (inactive) | – | > 100 µM (inactive)
COC(=O)c1c(OC(C)=O)ccc2c1c1c(n2C)C(=O)c2ccccc2C1=O | 33.7 µM (inactive) | 21 µM (inactive) | 26.8 µM (inactive) | 32.8 µM (inactive) | 25.8 µM (inactive) | 35.3 µM (inactive) | 38.9 µM (inactive) | 1.34 µM (inactive) | 4.81 µM (inactive) | 20.7 µM (inactive) | 24.4 µM (inactive) | – | 31.8 µM (inactive) | 29.1 µM (inactive) | 35.2 µM (inactive) | 33.9 µM (inactive) | 55.3 µM (inactive) | 23.2 µM (inactive) | 12.9 µM (inactive) | 19.1 µM (inactive)
O=C1Nc2cccc3cc(NCC(O)CCl)cc1c23 (centres undefined) | 53.6 µM (inactive) | 31.3 µM (inactive) | 91 µM (inactive) | > 100 µM (inactive) | 48.9 µM (inactive) | 49.9 µM (inactive) | > 100 µM (inactive) | 55.5 µM (inactive) | 88.5 µM (inactive) | 56.9 µM (inactive) | 38.4 µM (inactive) | 27.3 µM (inactive) | > 100 µM (inactive) | 35.2 µM (inactive) | 56.1 µM (inactive) | 64.7 µM (inactive) | 77.4 µM (inactive) | 21.5 µM (inactive) | 28.6 µM (inactive) | –
O=C(NNC(=O)c1ccccc1O)c1ccccc1O | 0.0525 µM (active) | 0.022 µM (active) | 0.0519 µM (active) | 5.24 µM (inactive) | 0.929 µM (active) | 0.0495 µM (active) | 0.873 µM (active) | 2.25 µM (inactive) | 0.0625 µM (active) | 0.0361 µM (active) | < 0.0233 µM (active) | 0.0918 µM (active) | 22.4 µM (inactive) | 0.413 µM (active) | 0.0785 µM (active) | 0.0791 µM (active) | 0.355 µM (active) | – | 0.341 µM (active) | 0.033 µM (active)
